# Results taken from ChEMBL document CHEMBL5620434, “Total Synthesis and Antibacterial Evaluation of Lupinifolin and Its Natural Analogues” (2024).
# Activity calls are given as the source filed them. The rule behind the calls is not given here.
# Columns and labels:
# Staphylococcus aureus [1] = test: Antibacterial activity against methicillin-resistant Staphylococcus aureus 21-5 assessed as reduction in bacterial growth incubated for 24 hrs by CLSI protocol based assay; assay type: functional
# Enterococcus faecalis [2] = test: Antibacterial activity against vancomycin-resistant Enterococcus faecalis ATCC51299 assessed as reduction in bacterial growth incubated for 24 hrs by CLSI protocol based assay; assay type: functional
# Enterococcus faecalis [3] = test: Antibacterial activity against Enterococcus faecalis ATCC29212 assessed as reduction in bacterial growth incubated for 24 hrs by CLSI protocol based assay; assay type: functional
# Escherichia coli [4] = test: Antibacterial activity against Escherichia coli ATCC 25922 assessed as reduction in bacterial growth incubated for 24 hrs by CLSI protocol based assay; assay type: functional
# Staphylococcus aureus [5] = test: Antibacterial activity against Staphylococcus aureus ATCC29213 assessed as reduction in bacterial growth incubated for 24 hrs by CLSI protocol based assay; assay type: functional
# Enterococcus faecalis [6] = test: Antibacterial activity against Enterococcus faecalis assessed as decrease in bacterial growth measured after 16 to 18 hrs in presence of peptidoglycan; assay type: functional, organism-based; details: time 16-18 hrs
# Enterococcus faecalis [7] = test: Antibacterial activity against Enterococcus faecalis assessed as decrease in bacterial growth measured after 16 to 18 hrs in presence of phosphatidylglycerol; assay type: functional, organism-based; details: time 16-18 hrs
# Enterococcus faecalis [8] = test: Antibacterial activity against Enterococcus faecalis assessed as decrease in bacterial growth measured after 16 to 18 hrs in presence of phosphatidylethanolamine; assay type: functional, organism-based; details: time 16-18 hrs
# Cell membrane [9] = test: Disruption of membrane integrity in Enterococcus faecalis ATCC29212 assessed as increase in green fluorescence at 8 times MIC incubated for 2 hrs by NucGreen dye based fluorescence microscopic analysis; assay type: cell membranes
# Cell membrane [10] = test: Disruption of membrane integrity in Enterococcus faecalis ATCC29212 assessed as increase in red fluorescence at 8 times MIC incubated for 2 hrs by EthD-III dye based fluorescence microscopic analysis
# Escherichia coli [11] = test: Antibacterial activity against Escherichia coli ATCC 25922; assay type: functional
# Escherichia coli [12] = test: Antibacterial activity against Escherichia coli ATCC 25922 in presence of polymyxin B nonapeptide; assay type: functional
# Cell membrane [13] = test: Disruption of membrane integrity in […] Enterococcus faecalis ATCC29212 assessed as appearance of shrunken cell surface at 2.0 ug/ml incubated for 2 hrs by SEM analysis; assay type: cell membranes; details: dose 2.0 µg/ml
# Cell membrane [14] = test: Disruption of membrane integrity in […] Enterococcus faecalis ATCC29212 assessed as appearance of ruptured cell surface at 2.0 ug/ml incubated for 2 hrs by SEM analysis; assay type: cell membranes; details: dose 2.0 µg/ml
# Enterococcus faecalis [15] = test: Antibacterial activity against Enterococcus faecalis assessed as decrease in bacterial growth measured after 16 to 18 hrs in presence of cardiolipin; assay type: functional, organism-based; details: time 16-18 hrs
# Cell membrane [16] = test: Disruption of membrane integrity in […] Enterococcus faecalis ATCC29212 assessed as appearance of wrinkled cell surface at 2.0 ug/ml incubated for 2 hrs by SEM analysis; assay type: cell membranes; details: dose 2.0 µg/ml
# Streptococcus mutans [17] = test: Bactericidal activity against Streptococcus mutans by CLSI protocol based assay; assay type: functional
# Streptococcus mutans [18] = test: Antibacterial activity against Streptococcus mutans by CLSI protocol based assay; assay type: functional
SMILES,MIC (Staphylococcus aureus [1]),MIC (Enterococcus faecalis [2]),MIC (Enterococcus faecalis [3]),MIC (Escherichia coli [4]),MIC (Staphylococcus aureus [5]),also measured
CC(C)=CCc1c2c(c(O)c3c1O[C@H](c1ccccc1)CC3=O)C=CC(C)(C)O2,> 128 µg/mL,> 128 µg/mL,> 128 µg/mL,> 128 µg/mL,> 128 µg/mL,–
CC(C)=CCc1c(O)c2c(c3c1OC(C)(C)C=C3)OC(c1ccc(O)cc1O)CC2=O (stereo not drawn),0.25 µg/mL,0.5 µg/mL,0.25 µg/mL,> 128 µg/mL,0.25 µg/mL,Activity (Enterococcus faecalis [6]): inactive; Activity (Enterococcus faecalis [7]): Active; Activity (Enterococcus faecalis [8]): inactive; Activity (Cell membrane [9]): Active; Activity (Cell membrane [10]): Active; MIC (Escherichia coli [11]): > 128 µg/mL; MIC (Escherichia coli [12]): 2 µg/mL; Activity (Cell membrane [13]): Active; Activity (Cell membrane [14]): Active; Activity (Enterococcus faecalis [15]): Active; Activity (Cell membrane [16]): Active
CC(C)C[C@@H]1NC(=O)[C@@H](Cc2ccccc2)NC(=O)[C@H](CCN)NC(=O)[C@@H](NC(=O)[C@H](CCN)NC(=O)[C@@H](N)[C@@H](C)O)CCNC(=O)C([C@@H](C)O)NC(=O)[C@H](CCN)NC(=O)[C@H](CCN)NC1=O (stereo partly drawn),–,–,–,–,–,MIC (Escherichia coli [11]): > 128 µg/mL
CC1(C)S[C@@H]2[C@H](NC(=O)[C@H](N)c3ccccc3)C(=O)N2[C@H]1C(=O)O [AMPICILLIN],32 µg/mL,–,0.5 µg/mL,8 µg/mL,0.5 µg/mL,–
CC(C)=CCc1c2c(c(O)c3c1O[C@H](c1ccc(O)cc1O)CC3=O)C=CC(C)(C)O2 [FLEMICHIN D],0.5 µg/mL,0.5 µg/mL,0.5 µg/mL,> 128 µg/mL,0.5 µg/mL,–
COc1ccc([C@@H]2CC(=O)c3c(O)c4c(c(CC=C(C)C)c3O2)OC(C)(C)C=C4)c(O)c1 [KHONKLONGINOL H],4 µg/mL,4 µg/mL,1 µg/mL,> 128 µg/mL,2 µg/mL,–
CC(C)=CCc1c2c(c(O)c3c1O[C@H](c1ccc(O)cc1)CC3=O)C=CC(C)(C)O2 [LUPINIFOLIN],2 µg/mL,1 µg/mL,0.5 µg/mL,> 128 µg/mL,2 µg/mL,MBC (Streptococcus mutans [17]): 0.5 µg/mL; MIC (Streptococcus mutans [18]): 0.25 µg/mL
CC(C)=CCc1c2c(c(O)c3c1O[C@H](c1ccccc1O)CC3=O)C=CC(C)(C)O2 [MINIMIFLORIN],2 µg/mL,1 µg/mL,0.5 µg/mL,> 128 µg/mL,2 µg/mL,–
